Values of other authors as cited in patent US20260014110A1, “RETINOIC ACID-ALCOHOL AMINE COMPLEX, PREPARATION METHOD AND APPLICATION THEREOF” (NANJING INDETEK LABORATORY CO., LTD., priority 2022, published 2026).
≈ marks a conversion by molar mass, not a printed value. Read-outs that look alike come from different tables or passages of the source.

solubility in water (Chinese Pharmacopoeia 2020, volume II): extremely difficult to dissolve in water | solubility in water (literature (Ascenso et al. 2011)): 1.06 µM (≈ 0.318 µg/mL)
Structure (SMILES): CC1=C(/C=C/C(C)=C/C=C/C(C)=C/C(=O)O)C(C)(C)CCC1 [retinoic acid]
